Assay results published in ChEMBL document CHEMBL3779887, “Robenidine Analogues as Gram-Positive Antibacterial Agents” (J Med Chem, 2016).
In brackets after ≈: the same amount, converted by molar mass. Activity calls are given as the source filed them. The calls are words filed in the database; no cut-off is given here.

Experiments:
Staphylococcus aureus [1] = test: Bactericidal activity against methicillin-sensitive Staphylococcus aureus ATCC 29213 assessed as log reduction in bacterial cell number at 8 times MIC after 8 hrs by time-kill curve analysis; assay type: functional
Staphylococcus aureus [2] = test: Antibacterial activity against Staphylococcus aureus ATCC 29213 after 20 to 24 hrs in presence of 2% heat inactivated bovine serum; assay type: functional
[3] = Lipophilicity, logD of the compound at pH 3; assay type: physicochemical; settings: buffer
Staphylococcus aureus [4] = test: Antibacterial activity against methicillin-sensitive Staphylococcus aureus ATCC 6538 after 20 to 24 hrs in presence of 50% heat inactivated bovine serum; assay type: functional
Staphylococcus aureus [5] = test: Ratio of MBC for methicillin-sensitive Staphylococcus aureus ATCC 6538 to MIC90 for methicillin-sensitive Staphylococcus aureus ATCC 6538; assay type: functional
Staphylococcus aureus [6] = test: Bactericidal activity against Methicillin-sensitive Staphylococcus aureus ATCC 29213 assessed as log reduction in bacterial cell number at 8 times MIC after 24 hrs by time-kill curve analysis; assay type: functional, organism-based
[7] = Half life of compound in mouse liver microsomes; assay type: ADME
Staphylococcus aureus [8] = test: Bactericidal activity against methicillin-sensitive Staphylococcus aureus ATCC 29213 assessed as log reduction in bacterial cell number at 4 times MIC after 8 hrs by time-kill curve analysis; assay type: functional
[9] = Metabolic stability in mouse liver microsomes assessed as compound loss after 60 mins; assay type: ADME; settings: read-out: Drug degradation
[10] = Lipophilicity, logD of the compound at pH 7.4; assay type: physicochemical; settings: buffer
Staphylococcus aureus [11] = test: Bactericidal activity against […] Staphylococcus aureus clinical isolate USA300 assessed as log reduction in bacterial cell number at 4 times MIC after 24 hrs by time-kill curve analysis; assay type: functional, organism-based
Staphylococcus aureus [12] = test: Bactericidal activity against methicillin-sensitive Staphylococcus aureus ATCC 6538 after 24 and 48 hrs; assay type: functional
Staphylococcus aureus [13] = test: Bactericidal activity against methicillin-sensitive Staphylococcus aureus ATCC 29213 assessed as log reduction in bacterial cell number at MIC after 8 hrs by time-kill curve analysis; assay type: functional
[14] = Toxicity in po dosed male rabbit; assay type: organism-based, Oryctolagus cuniculus; settings: in vivo
Staphylococcus aureus [15] = test: Bactericidal activity against methicillin-sensitive Staphylococcus aureus ATCC 49775 after 24 and 48 hrs; assay type: functional
Staphylococcus aureus [16] = test: Bactericidal activity against […] Staphylococcus aureus clinical isolate USA300 assessed as log reduction in bacterial cell number at MIC after 24 hrs by time-kill curve analysis; assay type: functional, organism-based
[17] = Selectivity index, ratio of GI50 for human HEL299 cells to MIC50 for methicillin-resistant Staphylococcus aureus clinical isolate; assay type: functional, HEL 299
Staphylococcus aureus [18] = test: Bactericidal activity against […] Staphylococcus aureus clinical isolate USA300 assessed as log reduction in bacterial cell number at 8 times MIC after 8 hrs by time-kill curve analysis; assay type: functional

With N=C(N/N=C/c1ccc(Cl)cc1)N/N=C/c1ccc(Cl)cc1 [ROBENIDINE] the Activity (Staphylococcus aureus [1]) was “>=4 log10CFU/ml”, the MIC90 (Staphylococcus aureus [2]) was 43.1 µM and the logD [3] was 3.7. The MIC90 (Staphylococcus aureus [4]) was > 250 µM, the Ratio (Staphylococcus aureus [5]) was 1 and the Activity (Staphylococcus aureus [6]) was “inactive”. The half-life [7] was > 4.12 h, the Activity (Staphylococcus aureus [8]) was “>=4 log10CFU/ml” and the metabolised at 1 h [9] was < 15%. The logD [10] was 4.5, the Activity (Staphylococcus aureus [11]) was “inactive” and the MBC (Staphylococcus aureus [12]) was 5.4 µM (≈ 1.8 µg/mL). The Activity (Staphylococcus aureus [13]) was “>=4 log10CFU/ml”, the LD50 [14] was 1500 mg/kg and the MBC (Staphylococcus aureus [15]) was 5.4 µM (≈ 1.8 µg/mL). For the same compound, the Activity (Staphylococcus aureus [16]) was “inactive”, the “Selectivity Index” value [17] was 2 and the Activity (Staphylococcus aureus [18]) was “>=4 log10CFU/ml”.
